For data set [1], the system named is atherosclerotic lesions containing MMP2 and MMP9. Put plainly: In vivo binding to atherosclerotic plaques (ex vivo storage phosphor imaging of aortic arch, MMP2/9 immunohistochemistry). Also on record: species or system ApoE-/- mice. The settings on record: 40 MBq i.v. The procedure: To investigate selective binding of [^123I]10c to MMP2/9 found in atherosclerotic lesions, we examined the distribution of the [^123I]10c in 8–10 week old female ApoE-/- mice (n = 5, Charles River) that were fed a high fat Western diet (15% fat, 0.25% cholesterol; Arie Blok Diervoeding, Netherlands) for 4 weeks. These animals subsequently developed atherosclerotic plaques. 40 MBq of [^123I]10c were administered by intravenous injection in the tail vein and allowed to circulate for […]. Animals were euthanized by bleeding via PBS infusion. The aortic arch was excised and 10 μm serial sections were made. Aortic arch sections were placed on a phosphor imaging plate (Fuji) and the amount of radioactivity was measured using a storage phosphor imaging apparatus (Typhoon Trio; GE Healthcare Life Sciences). Sections were then stained with hematoxylin/eosin staining, or used for MMP2 and MMP9 detection. Prior to incubation with monoclonal goat-anti-mouse MMP2 (R&D Systems) and rabbit-anti-mouse MMP9 (Abcam), the sections were heated to improve antigen retrieval. Rabbit-anti-goat secondary antibodies (DAKO) were utilized on the MMP2 sections. Thereafter, all sections were probed with the PowerVision anti-rabbit polymer, conjugated to horseradish peroxidase (Immunologic), to reveal positive primary antibody binding by means of chromogen conversion of 3,3’-diaminobenzidine (DAB), followed by nuclear counterstaining with hematoxylin. Histological sections were imaged with a bright-field microscope. […]
To validate the efficacy of [^123I]10c as an appropriate tracer for detection of atherosclerotic plaques, we examined the in vivo uptake of this ligand in ApoE-/- mice that were fed a high-fat diet. […] 40 MBq of [^123I]10c was administered intravenously and allowed to circulate for 3 hours, after which the animals were euthanized and the aortic arch was excised for measuring radioactivity by storage phosphor imaging.
Fig 6 Binding of [^123I]10c to atherosclerotic lesions containing MMP2 and MMP9. […] The region with highest apparent radioactivity has been outlined. […]

Data set [2] in a line: In vivo biodistribution after intravenous injection in healthy mice. Particulars: healthy C57BL/6 mice. The procedure:
All experiments were approved by the institutional committee for animal experiments at the Academic Medical Center. C57BL/6 female mice (14–16 week) were purchased from Harlan and housed in the animal care facility at the Academic Medical Center. Animals were anesthetized using 126 mg ketamine, 100 μg dexdomitor, 500 μg atropine, 7.5 mL NaCl 0.9% of which 0.015 mL/g body weight was administered by intraperitoneal injection. In order to investigate the in vivo biodistribution of MMP ligand [^123I]10c, 4 MBq was administered intravenously in the tail vein and allowed to circulate for either 5, 15, 30, 60 minutes or 2, 3, 4, 6 and 24 hours (n = 3–4 animals for each time point). At the end of each circulation time, animals were sacrificed by bleeding through phosphate buffered saline solution (PBS) perfusion. After the animals were sacrificed, whole blood was collected by cardiac puncture, and selected organs were excised (heart, lungs, liver and kidneys). The organs were weighed and radioactivity was measured using a scintillation counter (TRT-CARB 2000CA, Perkin Elmer 1987). The measured radioactivity was expressed as the percentage of the injected dose per gram of tissue per gram of body weight (% ID/g/g).
The biodistribution of [^123I]10c was investigated following intravenous infusion of 4 MBq in healthy C57BL/6 mice. Following the bolus injection, the compound was allowed to circulate for 5, 15, 30, 60 minutes, 2, 3, 4, 6 and 24 hours. […] In the blood, stabilization of the compound was reached after at least 1 hour of circulation.
Fig 5 Biodistribution of [^123I]10c following intravenous infusion in healthy mice (n = 3–4 /group). Injected dose (ID) of radioactivity was measured in fat (A), muscle (B), liver (C), kidney (D), spleen (E), blood (F), heart (G) and lung (H) at varying time-points after injection. Values shown are mean ± SEM.

Molecules are shown by their SMILES.

For `O=C(O)CN(CC(=O)NO)S(=O)(=O)c1ccc(Oc2ccc([123I])cc2)cc1` [[^123I]10c, ([4-(4-[^123I]Iodophenoxy)benzenesulphonyl]hydroxycarbamoylmethylamino) acetic acid], the “tracer uptake in diseased regions of the vessel wall” value in data set [1] (ApoE-/- mice on high-fat diet, storage phosphor imaging) is given as “relatively high”. Besides, the “uptake in atherosclerotic lesions of the aortic arch” value in data set [1] (ApoE-/- mice on high-fat diet, storage phosphor imaging of excised aortic arch) is recorded as “detectable”. For the same compound, in data set [1] (ApoE-/- mice, consecutive aortic arch sections), the “relation of tracer uptake to MMP2 and MMP9 immunohistochemical staining in lesions” value was “co-localizing”. The “circulation time until stabilization of the compound in blood” value in data set [2] (4 MBq i.v. bolus) was “at least 1 hour”. Besides, the “tissues with highest radioactivity (biodistribution)” value in data set [2] (4 MBq i.v., 5 min to 24 h) was “highest in the liver and blood”. Besides, the “accumulation in fat (biodistribution)” value in data set [2] (4 MBq i.v., 5 min to 24 h, relative to other tissues) is “lowest”.

These data come from article PMC5708805, “Novel molecular imaging ligands targeting matrix metalloproteinases 2 and 9 for imaging of unstable atherosclerotic plaques” (PLoS ONE, 2017).
